Results on 6 compounds are retold here after patent US20240373850A1, “Compositions comprising resinous exudate metabolites from plants of the genus Adesmia, used to control and treat infections in plant crops; and methods for controlling infections in plant crops” (PONTIFICIA UNIVERSIDAD CATÓLICA DE VALPARAÍSO, priority 2021, published 2024).

Assay [1] relates to Pseudomonas syringae pv actinidiae code 770. As to the kind of experiment: Antibacterial micro-dilution test (MIC), Psa 770. The assay is classed as cell-based. Conditions: read-out: MIC Psa 770. On the procedure:
(§1) Antibacterial test of secondary metabolites isolated from the resinous exudates of Adesmia plants against the pathogen (Psa), from isolates made in Chile and Italy, also tested on other bacteria of interest, in vitro.
(§2) All strains were cultivated in Nutrient culture medium supplemented with 3% sucrose (SNA), and incubated at 27° C. The bacterial inoculum was produced in Mueller-Hinton (MH) culture medium in glass test tubes and incubated at 27° C. in an orbital shaker at 150 rpm in the dark for 24 hours. A stock solution of each molecule was prepared to obtain a concentration of 2000 mg/L, later they were diluted in a 96-well microplate with MH culture medium and thus obtain the different concentrations of […] of each molecule. The antibacterial activity of the molecules was determined by the method of micro-dilution of the substance to be tested. Four controls were used: negative control (only MH liquid culture medium inoculated with bacteria); positive control (liquid MH culture medium adding Chloramphenicol at the same concentrations tested inoculated with bacteria and in the case of the Italian strain, copper sulfate was added), negative control (1) only substances plus solvent (liquid MH culture medium plus ethanol at 1% without inoculating bacteria) and a white control (only MH liquid culture medium, without inoculating). The bacterial suspension of each of the strains was adjusted to 0.5 McFarland (1×10^8 cfu/ml), inoculating 1.5 μL per well in the microplate and subsequently incubated at 27° C. for 24 hours.
(§3) The absorbances or optical density (O.D) were converted to percentage of antibacterial inhibition (PIAB) using the following formula:
(§4) In addition, […] aliquots of each of the concentrations were swept in a petri dish to observe the presence or absence of Psa colonies after 48 hours.
Background: In broth dilution the organism is exposed to a series of concentrations in liquid medium.

The test system of assay [2] is Pseudomonas syringae pv actinidiae code 8.43. As to the kind of experiment: Antibacterial micro-dilution test (MIC), Psa 8.43. Conditions: read-out: MIC Psa 8.43. It is filed as cell-based. The procedure: as §1, §2, §3, §4
In assay [3] the test system is Erwinia carotovora. Description: Antibacterial micro-dilution test (MIC), E.c. It is filed as cell-based. The following applies: Pectobacterium carotovorum, read-out: MIC E.c. On the procedure:
as §1
(§5) All strains were cultivated in Nutrient culture medium supplemented with 3% sucrose (SNA), and incubated at 27° C. The bacterial inoculum was produced in Mueller-Hinton (MH) culture medium in glass test tubes and incubated at 27° C. in an orbital shaker at 150 rpm in the dark for 24 hours. A stock solution of each molecule was prepared to obtain a concentration of 2000 mg/L, later they were diluted in a 96-well microplate with MH culture medium and thus obtain the different concentrations of […] of each molecule. The antibacterial activity of the molecules was determined by the method of micro-dilution of the substance to be tested. […]
(§6) Through the evaluation of absorbance at 600 nm in an Accu Reader M965 spectrophotometer, those treatments that were effective in inhibiting growth compared to the negative control were selected, to subsequently quantify the percentage of inhibition. The absorbances or optical density (O.D) were converted to percentage of antibacterial inhibition (PIAB) using the following formula: […]

The test system of assay [4] is Bacillus subtilis. As to the kind of experiment: Antibacterial micro-dilution test (MIC), B.s. The assay is classed as cell-based. Conditions: read-out: MIC B.s. On the procedure: as §1, §2, §6
Assay [5] concerns E. carotovora. As to the kind of experiment: Membrane integrity by Sytox Green staining, E. carotovora. Conditions: 50 ug/mL, 3 hours of incubation, fluorescence microscope. It is filed as cell-based, Erwinia carotovora. The procedure:
FIG. 11: Effect of 2′, 4′ dihydroxychalcone on the integrity of the cell membrane of E. carotovora. The bacteria were incubated in a culture medium at 22 QC in the presence of 30% (v/v) ethanol (a), 5% methanol; 50 ug/mL of the compound against E. carotovora seen in bright field (b) and seen under fluorescence (c) for 3 hours of incubation.
(§7) Determination of the effect of compound 2 4′ dihydroxychalcone (compound No. 4) on the integrity of the membrane of Gram negative and Gram positive bacteria.
(§8) Because several studies have established that phenolic compounds destroy the bacterial membrane, the effect of the major compound […] (compound No. 4) present in the exudate of plants of the Adesmia genus was evaluated, which was attributes the antibacterial activity that they present against Pseudomonas syringae pv actinidiae (Psa). It was tested against Gram-negative bacteria of agricultural importance Erwinia carotovora by Sytox Green staining. […] In this way, through the observation of nuclei stained with Sytox in the fluorescence microscope (100×), it is evident that the mechanism of action of the compound against both the Gram positive bacteria S. aureus and Gram negative E. carotovora is the destruction of the plasma membrane (FIG. 11c).

Assay [6] concerns S. aureus. Description: Membrane integrity by Sytox Green staining, S. aureus. The assay is classed as cell-based. Conditions: 50 ug/mL, 3 hours of incubation, fluorescence microscope. On the procedure:
as §7, §8

Assay [7] relates to Pseudomonas syringae pv actinidiae (Psa) 190770. As to the kind of experiment: In vivo antibacterial activity test in Kiwi seedlings, phytopathological evaluation. Details: species or system Kiwi A. chinensis. The following applies: 500 ug/mL. The source says: In vivo antibacterial activity tests of the compounds of the present invention, in Kiwi crops.
It is important to point out that the Chilean patent application 0881-2018 of the same inventors of the present invention, describes a procedure to prepare a composition obtained from resinous exudates of the aerial parts of plants of the genus Adesmia, to control in vitro and in vivo infections. in plant crops. In addition, methods for controlling infections in plant crops are described, which comprise applying said composition to crops infected with various microorganisms. […] For this, Kiwi A. chinensis seedlings from in vitro propagation were used. The bacterium Pseudomonas syringae pv actinidiae (Psa) 190770 used in the in vitro tests was used. The plants were kept in aseptic chambers with 50% relative humidity, under controlled temperature conditions (20° C.±2) and a photoperiod regimen of 12 hours of light and 12 hours of darkness. Both the application of the treatments and inoculation were applied in the summer season. The bacterial inoculum was sprayed on the surface of the leaves of the plants, which had been subjected to small wounds on the leaves. […] Control plants were only sprayed with sterile distilled water and kept isolated from the others treated with Psa.
(§9) The evaluations were made periodically to observe the symptoms of the plant (Table No. 4) and the samples were taken at the third and fourth week from the inoculation, in which the leaves were collected at the moment of beginning to see symptoms or in their defect a month after starting the trial, they were frozen in RNALater® and stored at −80° C. for RNA isolation.

Assay [8] relates to Pseudomonas syringae pv actinidiae (Psa). As to the kind of experiment: Absolute quantification of Psa infecting kiwi plants by qRT-PCR. It is filed as in vivo, Kiwi A. chinensis. Conditions: leaves, 3-4 weeks after inoculation, replicate runs; listed as Treatment 3. The procedure:
as §9
For this, the total RNA of the problem samples was isolated from 80 to 100 mg of tissue from the leaves of A. chinensis belonging to the applied treatments, which were extracted with the E.Z.N.A.® PLANT RNA Kit using the protocol for difficult samples described by the manufacturer and the concentration of the extracted material was quantified through the Nanodrop equipment. The qRT-PCR was performed using the AriaMx Realtime PCR System equipment, using the Takion Sybrgreen+One step converter kit and specific primers synthesized by IDT (Integrated DNA Technologies) (See Table 6).
The program conditions were 48° C. for 10 min, 95° C. for 3 min, followed by 40 cycles of 95° C. for 10 sec, alignment and extension at 60° C. for 50 sec; then the melting curves 95° C. for 30 sec., 65° C. for 30 sec., and 95° C. for 30 sec. […] The number of copies/ng of Total Psa RNA were calculated through the equation of the straight line provided by the equipment, which was analyzed with the standard curve included in each qRT-PCR run.
In general terms: Quantitative PCR measures a nucleic acid by following its amplification.

For assay [9], the system named is Pseudomonas syringae syringae. As to the kind of experiment: Antibacterial micro-dilution test (MIC), Pss. The assay is classed as cell-based. Conditions: MH medium, 27° C., 24 hours. The procedure: as §1, §5, §6
Setting [10] is: micro-dilution, MH medium, 27° C., 24 hours.

Molecules are shown by their SMILES. Values joined by “and” are separate entries in the source; they are usually repeats but may differ in a detail not shown here. Equal values may be shown once. Read-outs that look alike come from different tables or passages of the source.

Take `CC(C)=CCc1cc(C(=O)CCc2ccccc2)c(O)cc1O` [Compound 1]: the MIC (commonly the smallest concentration in the dilution series that meets the test's criterion for growth inhibition) is at least 400 µg/mL in assay [1] (24 h) and at least 200 µg/mL in assay [2] (24 h).

For the compound `CC(C)=CCc1c(O)cc(O)c2c1O[C@H](c1ccccc1)CC2=O` [Compound 2, glabranin], the MIC in assay [1] (24 h) is at least 400 µg/mL.

In the case of `CC(C)=CCc1c(O)ccc(C(=O)/C=C/c2ccccc2)c1O` [Compound 3, isochordine], in assay [1] (24 h), the MIC is at least 1600 µg/mL.

On to `O=C(/C=C/c1ccccc1)c1ccc(O)cc1O` [Compound 4, 2′,4′-dihydroxychalcone], for which the MIC in assay [1] (24 h) was at least 200 µg/mL; in assay [2] (24 h), at least 50 µg/mL; in assay [3] (24 h), at least 10 µg/mL; in assay [4] (24 h) it was at least 10 µg/mL. The “effect on the integrity of the plasmatic membrane” value in [5] and in [6] was “alteration of the plasmatic membrane was observed” in each case. The “in vivo inhibition of the disease caused by Psa in Kiwi cultures” value in assay [7] is on record as “in vivo inhibition of the disease”. In addition, the “plants without visual symptoms of the disease (level 0, healthy plants)” value in assay [7] (preventive treatment) turned out to be 60%. Also, the Percentage of incidence in [7] (preventive, sprayed 24 hours before inoculation) was 40%. The “Level of Incidence according to category (Maximum value 3)” value in [7] (preventive, sprayed 24 hours before inoculation, damage scale 0-3 of Table No. 4) is listed as 0.4. The Ct in assay [8] is 29.17 and 27.80 and 30.01.

With `COc1ccc(C(=O)CCc2ccccc2)c(OC)c1` [Compound 9, 2′,4′-dimethoxydihydrochalcone], the MIC in [1] (setting [10]) is at least 400 µg/mL; in assay [2] (setting [10]), at least 1600 µg/mL; in assay [9], at least 50 µg/mL; in assay [3] (setting [10]), at least 10 µg/mL; in assay [4] (setting [10]), at least 10 µg/mL.

With `O=C(/C=C/c1ccccc1)c1c(O)cc(O)cc1O` [Compound 10, 2′,4′, 6′-trihydroxy chalcone], the minimum inhibitory concentration (MIC) was at least 50 µg/mL in assay [1] (setting [10]), at least 50 µg/mL in [2] (setting [10]), at least 50 µg/mL in assay [9] and at least 10 µg/mL in [4] (setting [10]).
